How the values were obtained:
[1] = target: T1, β-amyloid peptide (his-Aβ 1-40) with Aβ 1-42 fibrils (Homo sapiens, UniProt P05067); test: Colloid drug screen for aggregate inhibition at high peptide concentration, with pre-formed Aβ 1-42 fibrils; format: biochemical; settings: 20 uM his-Aβ 1-40 + 1 uM Aβ 1-42 fibrils; 5 ul drug (2.9 mg/ml in DMSO) in 100 ul; 37° C. 4-6 hours; microscope 40×
T1 construct: 10 ul of a 200 uM solution of his-Aβ 1-40 peptide in phosphate buffer; 3.3 ul of 30 uM Aβ 1-42 fibrils (non-histidine-tagged) was added to each well
Source text: (§1) Compositions were identified that inhibit aggregation characteristic of neurodegenerative disease at high B-amyloid peptide concentration, low peptide concentration, and in some cases both. Compositions that inhibited aggregation at high concentration inhibited formation where an assay included B-amyloid peptide and at least some amount of pre-formed aggregate characteristic of neurodegenerative disease. Compositions that inhibited aggregation at low concentration inhibited […] in the presence of β-amyloid peptide but in the absence of any pre-formed aggregate characteristic of neurodegenerative disease.
In another drug screening method, drugs were incubated with Aβ 1-42 fibrils, which will convert normal Aβ 1-40 peptides to the fibrillar form at a faster rate than Aβ 1-40 fibrils. Histidine-tagged Aβ 1-40 peptides were then added to the wells, along with colloids derivatized with self-assembled monolayers containing NTA-Ni for the attachment of histidine-tagged Aβ 1-40. It was previously shown that Aβ 1-42 fibrils will cause accelerated conversion of Aβ 1-40, which will then incorporate into large aggregates structures. These aggregates are colored red by the colloids attached to the peptides, and are easily visible under the microscope.
5 ul of each drug in DMSO was added to the wells of a 96-well ELISA plate, which contained 52 ul of phosphate buffer. […]

[2] = test system: Amyloid Precursor Protein (APP) in HEK cells; test: Colorimetric whole cell screening assay for drugs that effect APP production, secretion, or cleavage; format: cell-based, Human; settings: HEK cells expressing APP; 1.25 ul of 2.9 mg/mL drug in DMSO per well, approx. 18 hours; then 5 uM His-AB colloids 8-12 hours
Method: Human Embryonic Kidney (HEK) cells expressing the Amyloid Precursor Protein (APP) were split into the wells of a 96-well cell-culture plate and were allowed to adhere and spread. […] Positive control cells were given DMSO in place of a drug. […] Cells were allowed to grow overnight for approximately 18 hours at 37C. After 18 hours, 1.925 mL of a 30 uM solution of His-tagged AB(1-40) in phosphate buffer was mixed with 2.880 mL 40 uM NTA colloids for a resulting concentration of 12 uM His-AB. 50 ul of the AB colloid solution was added to each well of the cell-culture plate, which contained 70 ul cell culture media per well. […] The plates were incubated at 37C for 8-12 hours, or until a color change from pink to blue occurred in the positive controls.
Once the positive controls changed color from pink to blue, the wells containing drug candidates were visually examined for a color change. […] Cell death due to drug toxicity would obviously effect APP production, and may cause a well to remain pink. For this reason, all wells containing drug candidates were examined under the microscope for cell viability.

[3] = target: T2, β-amyloid peptide (his-Aβ 1-40) (Homo sapiens, UniProt P05067); test: Colloid colorimetric drug screen for fibril inhibition at low peptide concentration, no pre-formed aggregate; format: biochemical; settings: 5 uM his-Aβ 1-40, no pre-formed aggregate; 5 ul drug (2.9 mg/ml in DMSO); 37C 1.5-2 hours; well stays pink vs blue
T2 construct: 10 ul of a 50 uM solution of his-Aβ 1-40 peptide in phosphate buffer
Source text: as §1
In one drug screening method, histidine-tagged AB 1-40 peptides were immobilized on colloids derivatized with self-assembled monolayers containing NTA-Ni for the attachment of histidine-tagged peptides. It has been previously shown that the Aβ peptides, if not inhibited by a drug, will spontaneously convert to the fibrillar form and aggregate, pulling the colloids close together, and causing a color change from pink to blue.
Drugs from the Sigma-RBI Library of Pharmacologically Active Compounds (LOPAC; #SC001, 1999) were dissolved in dimethyl sulphoxide (DMSO) to a final concentration of 2.9 mg/ml. […]

T2 sequence (P05067 672-711): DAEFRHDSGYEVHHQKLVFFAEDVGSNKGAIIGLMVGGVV
T1 sequence (P05067 672-713): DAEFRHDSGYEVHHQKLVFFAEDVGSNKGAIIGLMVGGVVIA
T1 sequence (P05067 672-711): as the sequence (P05067 672-711) above

COc1cc(Cc2cnc(N)nc2N)cc(OC)c1OC [trimethoprim]
do not provide a positive result: inhibition of aggregate formation at high peptide concentration [1] | effect on APP production, secretion, or cleavage (lack of color change pink to blue) [2] | inhibition of aggregate formation at low peptide concentration [3]

From US20030060487A1, “Treatment of neurodegenerative disease” (priority 2000, published 2003)
